Experimental data reported in patent US4160097A, “1-(2-Phenylureylene)imidazoles” (Westwind Pharmaceuticals, Inc., priority 1977, dated 1979).
Converted amounts (≈) assume the structure as drawn.

How the values were obtained:
[1] = tested on: Trichophyton mentagrophytes; experiment: Antifungal activity, agar dilution method; format: cell-based, Trichophyton mentagrophytes (ATCC No. 8757 and 9129); conditions: T. mentagrophytes, read-out: Parts Per Million Inhibitions of T. mentagrophytes
Protocol: (§1) various compounds of this invention display antifungal and anti-yeast activity.
(§2) In Table IX below are listed the antifungal activity of a number of compounds encompassed in the present invention. These were determined by the agar dilution method as described in Chapters 2 and 3 of Methods in Microbiology, Vol. 7B, edited by J. R. Norris and D. W. Ribbons, Academic Press, New York, 1972.

[2] = tested on: humeral or antibody response; experiment: hemolysin test in mice; format: in vivo; conditions: Mus musculus, sc, dose reducing antibody activity by 50% vs control, read-out: HL(ED50)
[3] = tested on: cell-mediated immune response to the antigen, Mycobacterium tuberculosis H37Ra; experiment: delayed hypersensitivity test; format: in vivo, mouse; conditions: mice, dose reducing edema of cell-mediated immune response by 60% vs control; for ED60: Mus musculus, sc, read-out: D.H.S. (ED60)
Protocol: The immunosuppressant activities of the compounds of this invention were determined via the hemolysin test in mice and by the delayed hypersensitivity test. The hemolysin test used is that described in Methods in Immunology, edited by D. H. Campbell et al, W. A. Benjamin, New York 1963 pages 172-175, and measures humeral or antibody response. The delayed hypersensitivity test measures the effect of a test compound on the ability of a subject mouse to mount a cell-mediated immune response to the antigen, Mycobacterium tuberculosis H37Ra. The mouse is sensitized to the antigen by subcutaneous administration in the base of the tail. The development of the delayed hypersensitivity response may be measured at any time beginning six days after sensitization but is usually done on the ninth day as follows: The right hind paw is injected with purified protein derivative (tuberculin) while the left hind paw (control) receives physiological saline. Both paw volumes are measured after twenty-four hours and significant increase in the volume of the right hand paw is taken as a measure of an effective delayed hypersensitivity response. All compounds were administered by the subcutaneous route.
The D.H.S. (ED60) mg./kg. s.c. value appearing in column 3 is an expression of the effectiveness of the drug in reducing the edema that accompanies the cell-mediated immune response. It is a measure of the number of milligrams per kilogram of body weight of the drug administered subcutaneously which is required to reduce the edema of the cell-mediated immune response by 60% when compared to the control.

Trichophyton rubrum = experiment: Antifungal activity, agar dilution method; format: cell-based, Trichophyton rubrum (ATCC No. 10218 and 14001); conditions: T. rubrum, read-out: Parts Per Million Inhibitions of T. rubrum
Protocol: as §1, §2

[4] = tested on: carrageenan rat paw edema; experiment: Rat Paw Edema Assay, Oral Dosing; format: in vivo; conditions: 4 h, four hours after drug, read-out: % Difference from Control; for change in vivo at 100 mg/kg: 100 mg/kg oral; for change in vivo at 400 mg/kg: 400 mg/kg oral
Protocol: The anti-inflammatory activity of representative compounds of this invention was determined by the rat paw edema assay both by local administration (Table XI below) and by oral dosing (Table XII below). For the oral dosing, the procedure of C. A. Winter, E. A. Risley and G. W. Nuss, Proc. Soc. Exp. Biol. Med. III, 544 (1962) was employed with measurement taken four hours after the drug was administered. The local administration tests were carried out similarly except the irritant (carrageenan) and the test compound were injected simultaneously at time zero.
Tables XI and XII report the anti-inflammatory activity of the compounds tested as % difference in the edema or swelling as compared with the control. These Tables also give the response in many instances of more than one dose level of the same drug.

Structure (SMILES)	ED50 [2] [mg/kg]	ED60 [3] [mg/kg]	change in vivo at 100 mg/kg [4] [%]	other results
Clc1cccc(-c2nc3ccccc3n3ccnc23)c1 [Compound 142]	0.2	4.2	–	MIC [1]: 100 µg/mL (≈ 357 µM)
Oc1ccc(-c2nc3ccccc3n3ccnc23)cc1 [Compound 162]	13	–	–	–
O=C(Nc1ccccc1-n1ccnc1)c1cccc(Br)c1 [Compound 59]	–	–	–	MIC (Trichophyton rubrum): 100 µg/mL (≈ 292 µM)
O=C(Nc1ccccc1-n1ccnc1)C(Cl)Cl [Compound 29]	–	–	-24	change in vivo at 400 mg/kg [4]: -25%
CCCCCCCCc1nc2ccccc2n2ccnc12 [Compound 117]	> 50	46	-7	change in vivo at 400 mg/kg [4]: -18%
Brc1cccc(Nc2nc3ccccc3n3ccnc23)c1 [Compound 178]	11	46	–	–
CCCCCCCCCCCCCCCc1nc2ccccc2n2ccnc12 [Compound 119]	–	–	–	MIC (Trichophyton rubrum): 8 µg/mL (≈ 21.1 µM)
COc1ccc(Oc2ccc(-c3nc4ccccc4n4ccnc34)cc2)cc1 [Compound 220]	2.3	11	–	–
Brc1cccc(-c2nc3ccccc3n3ccnc23)c1 [Compound 157]	0.39	12	–	–
c1ccc2c(c1)nc(C1CCC1)c1nccn12 [Compound 128]	–	–	-39	MIC (Trichophyton rubrum): 16 µg/mL (≈ 71.7 µM)
c1ccc(Nc2nc3ccccc3n3ccnc23)cc1 [Compound 170]	6.6	> 50	–	–
CC(=O)Nc1ccccc1-n1ccnc1 [Compound 2]	–	–	-26	change in vivo at 400 mg/kg [4]: 43%
O=C(Nc1ccccc1-n1ccnc1)c1ccc(F)cc1 [Compound 45]	–	–	-33	–
O=C(Nc1ccccc1-n1ccnc1)C1CC1 [Compound 23]	–	–	-46	–
COc1ccc2c(c1)c(CC(=O)O)c(C)n2C(=O)c1ccc(Cl)cc1 [Indomethacin, reference compound]	–	–	-65	–
CCCCC(CC)C(=O)Nc1ccccc1-n1ccnc1 (centres unmarked) [Compound 15]	–	–	-24	change in vivo at 400 mg/kg [4]: -5%
O=C(Nc1ccccc1-n1ccnc1)c1cccc(Cl)c1 [Compound 50]	–	–	-20	change in vivo at 400 mg/kg [4]: -33%
FC(F)(F)c1cccc(-c2nc3ccccc3n3ccnc23)c1 [Compound 136]	2.7	> 50	-9	MIC [1]: 100 µg/mL (≈ 319 µM); change in vivo at 400 mg/kg [4]: -25%
CCC(=O)Nc1ccccc1-n1ccnc1 [Compound 3]	50	50	–	D.H.S. (ED60) ([3]; s.c.): 50.0 mg/kg
Cc1ccccc1Nc1nc2ccccc2n2ccnc12 [Compound 197]	1.6	37	–	–
O=C(Nc1ccc(Cl)cc1)Nc1ccccc1-n1ccnc1 [Compound 75]	–	–	-30	–

Structure (SMILES)	ED50 [2] [mg/kg]	ED60 [3] [mg/kg]	change in vivo at 100 mg/kg [4] [%]	other results
CCc1nc2ccccc2n2ccnc12 [Compound 111]	–	–	-43	–
N#Cc1ccc(-c2nc3ccccc3n3ccnc23)cc1 [Compound 149]	0.16	8.8	–	–
Clc1ccc(Nc2nc3ccccc3n3ccnc23)cc1 [Compound 174]	0.61	8	–	–
Clc1ccc(-c2nc3ccccc3n3ccnc23)c(Cl)c1 [Compound 144]	–	–	-26	–
Brc1ccc(Nc2nc3ccccc3n3ccnc23)cc1 [Compound 183]	0.39	15	–	–
O=[N+]([O-])c1cccc(-c2nc3ccccc3n3ccnc23)c1 [Compound 150]	22	> 50	-30	–
O=C(Nc1ccccc1-n1ccnc1)C(F)(F)F [Compound 30]	–	–	9	change in vivo at 400 mg/kg [4]: -33%
Brc1ccccc1Nc1nc2ccccc2n2ccnc12 [Compound 177]	13	> 50	–	–
CC(C)c1ccc(Nc2nc3ccccc3n3ccnc23)cc1 [Compound 218]	1.5	25	–	–
Fc1ccc(-c2nc3ccccc3n3ccnc23)cc1 [Compound 147]	0.027	1.7	-39	–
Ic1ccc(-c2nc3ccccc3n3ccnc23)cc1 [Compound 196]	0.42	45	–	–
Fc1ccccc1Nc1nc2ccccc2n2ccnc12 [Compound 180]	5.6	–	–	–
O=C(Cc1ccccc1)Nc1ccccc1-n1ccnc1 [Compound 18]	–	–	-28	–
COc1cc(OC)cc(C(=O)Nc2ccccc2-n2ccnc2)c1 [Compound 57]	–	–	-35	–
CC(=O)Oc1ccccc1C(=O)O [Aspirin, reference compound]	–	–	-57	–
COc1cc(OC)cc(-c2nc3ccccc3n3ccnc23)c1 [Compound 139]	3	> 50	-22	MIC [1]: 100 µg/mL (≈ 328 µM); change in vivo at 400 mg/kg [4]: -25%
CCCCCCCCCCCCCCCCCc1nc2ccccc2n2ccnc12 [Compound 120]	–	–	–	MIC (Trichophyton rubrum): 1 µg/mL (≈ 2.45 µM)
C=CCCCCCCCCc1nc2ccccc2n2ccnc12 [Compound 123]	–	–	0	MIC (Trichophyton rubrum): 2 µg/mL (≈ 6.51 µM); change in vivo at 400 mg/kg [4]: -50%
COc1ccc(C(=O)Nc2ccccc2-n2ccnc2)cc1 [Compound 55]	–	–	-26	–
c1ccc(Oc2ccc(-c3nc4ccccc4n4ccnc34)cc2)cc1 [Compound 219]	2.5	> 32	–	–
Fc1cccc(-c2nc3ccccc3n3ccnc23)c1 [Compound 158]	1	7.6	–	–

Structure (SMILES)	ED50 [2] [mg/kg]	ED60 [3] [mg/kg]	change in vivo at 100 mg/kg [4] [%]	other results
Fc1cccc(Nc2nc3ccccc3n3ccnc23)c1 [Compound 181]	16	–	–	–
Cc1ccc(NC(=O)Nc2ccccc2-n2ccnc2)cc1 [Compound 71]	–	–	-22	–
O=C(Nc1ccccc1-n1ccnc1)c1cccc([N+](=O)[O-])c1 [Compound 42]	–	–	-9	change in vivo at 400 mg/kg [4]: -25%
O=C(Nc1ccccc1-n1ccnc1)C1CCC1 [Compound 24]	–	–	-17	change in vivo at 400 mg/kg [4]: -25%
O=C(Nc1ccccc1-n1ccnc1)NC1CCCCC1 [Compound 68]	–	–	-26	–
CC(C)CC(=O)Nc1ccccc1-n1ccnc1 [Compound 14]	–	–	-52	–
Clc1ccc(Nc2nc3ccccc3n3ccnc23)cc1Cl [Compound 175]	0.09	5.9	–	–
O=C(Nc1ccccc1-n1ccnc1)c1ccc(Cl)cc1Cl [Compound 52]	–	–	-26	–
Brc1ccc(-c2nc3ccccc3n3ccnc23)cc1 [Compound 146]	0.11	3.1	–	–
Cc1ccc(C(=O)Nc2ccccc2-n2ccnc2)cc1 [Compound 37]	–	–	-35	–
O=C(Nc1ccccc1-n1ccnc1)c1cccc(C(F)(F)F)c1 [Compound 38]	–	–	-41	–
Cc1ccc(Nc2nc3ccccc3n3ccnc23)cc1 [Compound 171]	0.96	59	–	–
CCCNC(=O)Nc1ccccc1-n1ccnc1 [Compound 66]	46	> 50	–	–
CCCCC1C(=O)N(c2ccccc2)N(c2ccccc2)C1=O [phenylbutazone, reference compound]	–	–	-76	–
CC(C)Cc1nc2ccccc2n2ccnc12 [Compound 121]	–	–	-61	–
O=C(Nc1ccccc1-n1ccnc1)C1CCCCC1 [Compound 25]	–	–	-30	–
CCCCCCc1nc2ccccc2n2ccnc12 [Compound 115]	–	–	70	change in vivo at 400 mg/kg [4]: -25%
O=C(Nc1cccc(F)c1)Nc1ccccc1-n1ccnc1 [Compound 73]	–	–	-22	–
CCCCSc1ccc(-c2nc3ccccc3n3ccnc23)cc1 [Compound 222]	1	> 32	–	–
Clc1ccc(-c2nc3ccccc3n3ccnc23)cc1Cl [Compound 143]	0.36	1.3	–	–
Cc1cccc(C(=O)Nc2ccccc2-n2ccnc2)c1 [Compound 36]	–	–	-7	change in vivo at 400 mg/kg [4]: -68%
